compound: C1=CC2=C(C=C(C(=C2N=C1)O)N=NC3=CC4=C(C=C3)C=C(C=C4)S(=O)(=O)O)S(=O)(=O)O + O=C(c1cc(Cc2n[nH]c(=O)c3ccccc23)ccc1F)N1CCN(C(=O)C2CC2)CC1 [Olaparib] (partner 8 µM); test: relative viability (nuclei count vs DMSO), 5 days (fraction); higher = more cells survive; conditions: first compound 0.08 µM
Outline: (§1)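 One day after seeding in 1536-well plates, lung cancer cell lines were dosed by pin tool. Dosing was either single-drug or a fixed anchor-drug dose plus five library-drug doses (not always all listed) in √10 steps. After 5 days, nuclei were stained in one fix-and-stain step and counted on 4× images, and relative viability is the nuclei count of treated wells over that of vehicle wells, given as the median of duplicate plates.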

Cell Line	relative viability
HCC-78	0.971
NCI-H322M	0.733
LCLC-97TM1	0.41
A-427	0.727
NCI-H441	0.617
NCI-H1734	0.609
NCI-H460	0.537
NCI-H2347	0.569
NCI-H1395	0.498
201T	0.846
NCI-H1915	0.25
HCC-827	0.68
LXF-289	1.26
NCI-H23	0.27
NCI-H647	0.516
NCI-H1651	0.187
EPLC-272H	0.855

same assay, conditions: first compound 0.253 µM

Cell Line	relative viability
HCC-78	0.908
NCI-H322M	0.705
LCLC-97TM1	0.38
A-427	0.763
NCI-H441	0.57
NCI-H1734	0.588
NCI-H460	0.356
NCI-H2347	0.538
NCI-H1395	0.47
201T	0.82
NCI-H1915	0.286
HCC-827	0.524
LXF-289	1
NCI-H23	0.339
NCI-H647	0.48
NCI-H1651	0.176
EPLC-272H	0.683

same assay, conditions: first compound 0.8 µM

Cell Line	relative viability
HCC-78	0.733
NCI-H322M	0.691
LCLC-97TM1	0.432
A-427	0.709
NCI-H441	0.586
NCI-H1734	0.697
NCI-H460	0.444
NCI-H2347	0.618
NCI-H1395	0.489
201T	0.871
NCI-H1915	0.256
HCC-827	0.647
LXF-289	0.973
NCI-H23	0.343
NCI-H647	0.522
NCI-H1651	0.196
EPLC-272H	0.722

same assay, conditions: first compound 2.53 µM

Cell Line	relative viability
HCC-78	0.801
NCI-H322M	0.78
LCLC-97TM1	0.338
A-427	0.825
NCI-H441	0.531
NCI-H1734	0.642
NCI-H460	0.43
NCI-H2347	0.569
NCI-H1395	0.469
201T	0.852
NCI-H1915	0.258
HCC-827	0.568
LXF-289	1.05
NCI-H23	0.324
NCI-H647	0.65
NCI-H1651	0.208
EPLC-272H	1

same assay, conditions: first compound 8 µM

Cell Line	relative viability
HCC-78	0.811
NCI-H322M	0.834
LCLC-97TM1	0.32
A-427	0.736
NCI-H441	0.595
NCI-H1734	0.624
NCI-H460	0.425
NCI-H2347	0.8
NCI-H1395	0.402
201T	0.832
NCI-H1915	0.258
HCC-827	0.687
LXF-289	1.03
NCI-H23	0.359
NCI-H647	0.545
NCI-H1651	0.181
EPLC-272H	0.808

compound: O=C(NC1CCNCC1)c1n[nH]cc1NC(=O)c1c(Cl)cccc1Cl [AT-7519] + CS(=O)(=O)N1CCN(Cc2cc3nc(-c4cccc5[nH]ncc45)nc(N4CCOCC4)c3s2)CC1 [Pictilisib] (partner 1 µM); test: as above; conditions: first compound 0.01 µM
Outline: as §1

Cell Line	relative viability
HCC-78	0.208
NCI-H322M	0.565
LCLC-97TM1	0.196
A-427	0.711
NCI-H441	0.448
NCI-H1734	0.552
NCI-H460	0.346
NCI-H2347	0.565
NCI-H1395	0.662
201T	0.684
NCI-H1915	0.987
HCC-827	1.15
LXF-289	0.819
NCI-H23	0.534
NCI-H647	0.452
NCI-H1651	0.59
EPLC-272H	0.384

same assay, conditions: first compound 0.03162 µM

Cell Line	relative viability
HCC-78	0.214
NCI-H322M	0.495
LCLC-97TM1	0.176
A-427	0.713
NCI-H441	0.452
NCI-H1734	0.452
NCI-H460	0.446
NCI-H2347	0.665
NCI-H1395	0.523
201T	0.712
NCI-H1915	0.943
HCC-827	0.875
LXF-289	0.838
NCI-H23	0.438
NCI-H647	0.531
NCI-H1651	0.478
EPLC-272H	0.311

same assay, conditions: first compound 0.3162 µM

Cell Line	relative viability
HCC-78	0.146
NCI-H322M	0.473
LCLC-97TM1	0.211
A-427	0.574
NCI-H441	0.468
NCI-H1734	0.439
NCI-H460	0.37
NCI-H2347	0.345
NCI-H1395	0.51
201T	0.7
NCI-H1915	0.755
HCC-827	0.819
LXF-289	0.787
NCI-H23	0.428
NCI-H647	0.483
NCI-H1651	0.397
EPLC-272H	0.249

same assay, conditions: first compound 1 µM

Cell Line	relative viability
HCC-78	0.209
NCI-H322M	0.439
LCLC-97TM1	0.152
A-427	0.253
NCI-H441	0.161
NCI-H1734	0.252
NCI-H460	0.286
NCI-H2347	0.286
